Test results: patent US20060069132A1, “Azolecarboxamide herbicides” (priority 2004, published 2006)

What was measured:
cocklebur = assay: Test B pre-/postemergence herbicide test; assay type: in vivo, Xanthium strumarium
How it was run: (§1)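 Herbicidal effect was judged by eye on a 0–100 scale after plants stood 13 to 15 days in the greenhouse following pre- or postemergence treatment with surfactant-containing formulations.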

Surinam grass = assay: Test B pre-/postemergence herbicide test; assay type: in vivo, Urochloa decumbens
How it was run: as §1

rice [1] = assay: Test B flooded paddy test; assay type: in vivo, Oryza sativa; details: 1000 g ai/ha, visual rating, scale 0 to 100 (0 no effect, 100 complete control), 13 to 15 days
How it was run: (§2)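 Treated at 2-leaf (paddy) or 1–4-leaf, 2–18 cm (postemergence); greenhouse 13–15 d; visual score vs control, 0 none to 100 complete control; dash = not tested.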

morningglory [2] = assay: Test A pre-/postemergence herbicide test; assay type: in vivo, Ipomoea spp.
How it was run: (§3)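 Visual injury rating on a 0–100 scale (0 no effect, 100 complete control) versus untreated controls, about ten days after treatment in greenhouse. Pre: directed soil spray onto seeded sandy loam. Post: spray to runoff on plants 2–10 cm tall at one- to two-leaf stage.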

giant foxtail [3] = assay: Test B pre-/postemergence herbicide test; assay type: in vivo, Setaria faberi
How it was run: as §1

ducksalad = assay: Test B flooded paddy test; assay type: in vivo, Heteranthera limosa; details: 1000 g ai/ha, visual rating, scale 0 to 100 (0 no effect, 100 complete control), 13 to 15 days
How it was run: as §2

giant foxtail [4] = assay: Test A pre-/postemergence herbicide test; assay type: in vivo, Setaria faberi
How it was run: as §3

velvetleaf [5] = assay: Test B pre-/postemergence herbicide test; assay type: in vivo, Abutilon theophrasti
How it was run: as §1

pigweed = assay: Test B pre-/postemergence herbicide test; assay type: in vivo, Amaranthus retroflexus
How it was run: as §1

barnyardgrass [6] = assay: Test B flooded paddy test; assay type: in vivo, Echinochloa crus-galli; details: 1000 g ai/ha, visual rating, scale 0 to 100 (0 no effect, 100 complete control), 13 to 15 days
How it was run: as §2

velvetleaf [7] = assay: Test A pre-/postemergence herbicide test; assay type: in vivo, Abutilon theophrasti
How it was run: as §3

wheat = assay: Test B postemergence herbicide test; assay type: in vivo, Triticum aestivum; parameters: key to Wheat plant response rating: 0 = no effect, 100 = complete control; details: scale 0 (no effect) to 100 (complete control)
How it was run: (§4)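 Formulated test chemicals went onto postemergence plants measuring 2 to 18 cm, at one to four leaves. For the paddy assay, species had reached two leaves. Scoring took place 13–15 days later by eye, relative to untreated plants, using 0 for no effect up to 100 for full control.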

barnyardgrass [8] = assay: Test A pre-/postemergence herbicide test; assay type: in vivo, Echinochloa crus-galli
How it was run: as §3

lambsquarters = assay: Test B pre-/postemergence herbicide test; assay type: in vivo, Chenopodium album
How it was run: as §1

corn = assay: Test B pre-/postemergence herbicide test; assay type: in vivo, Zea mays
How it was run: as §1

large crabgrass [9] = assay: Test A pre-/postemergence herbicide test; assay type: in vivo, Digitaria sanguinalis
How it was run: as §3

large crabgrass [10] = assay: Test B pre-/postemergence herbicide test; assay type: in vivo, Digitaria sanguinalis
How it was run: as §1

barnyardgrass [11] = assay: Test B pre-/postemergence herbicide test; assay type: in vivo, Echinochloa crus-galli
How it was run: as §1

rice [12] = assay: Test B pre-/postemergence herbicide test; assay type: in vivo, Oryza sativa; details: preemergence, 125 g ai/ha; 0 to 100 scale, 0 is no effect, 100 is complete control
How it was run: as §1

morningglory [13] = assay: Test B pre-/postemergence herbicide test; assay type: in vivo, Ipomoea coccinea
How it was run: as §1

[14] = test system: small flower umbrella sedge; assay: Test B flooded paddy test; assay type: in vivo, Cyperus difformis; details: 1000 g ai/ha, visual rating, scale 0 to 100 (0 no effect, 100 complete control), 13 to 15 days
How it was run: as §2

blackgrass = assay: Test B postemergence herbicide test; assay type: in vivo, Alopecurus myosuroides; details: scale 0 (no effect) to 100 (complete control)
How it was run: as §2

redroot pigweed = assay: Test A pre-/postemergence herbicide test; assay type: in vivo, Amaranthus retroflexus
How it was run: as §3

wild oat = assay: Test B postemergence herbicide test; assay type: in vivo, Avena fatua; details: scale 0 (no effect) to 100 (complete control)
How it was run: as §4

[15] = Postemergence, 500 g ai/ha, visual rating after 13 to 15 days, scale 0 (no effect) to 100 (complete control)
[16] = Preemergence, 500 g ai/ha, scale 0 to 100
[17] = postemergence, 125 g ai/ha, visual rating, scale 0 (no effect) to 100 (complete control)
[18] = preemergence, 125 g ai/ha, 0 to 100 scale, 0 is no effect, 100 is complete control
[19] = Postemergence, 500 g ai/ha, 0 to 100 scale, 0 no effect, 100 complete control
[20] = Postemergence, 2000 g ai/ha, 0 to 100 scale, 0 no effect, 100 complete control
[21] = Preemergence, 500 g ai/ha, visual rating, 0 to 100 scale (0 no effect, 100 complete control)
[22] = Preemergence, 2000 g ai/ha, 0 to 100 scale, 0 no effect, 100 complete control
[23] = Postemergence, 500 g ai/ha, visual rating after 13 to 15 days
[24] = postemergence, 125 g ai/ha, visual rating

CCn1nc(C(C)(C)C)cc1C(=O)Nc1cccc(C(=O)OC)c1C [Compound 87]
Plant response rating, Cocklebur (cocklebur; [15]): 0
Cocklebur plant response rating (cocklebur; [16]): 0
Cocklebur plant response rating (cocklebur; [17]): 0
Plant response rating, Cocklebur (cocklebur; [18]): 0
Plant response rating, Surinam Grass (Surinam grass; [15]): 0
Surinam Grass plant response rating (Surinam grass; [17]): 0
Plant response rating, Surinam Grass (Surinam grass; [18]): 0
Rice plant response rating (rice [1]): 10
Morningglory plant response rating (morningglory [2]; [19]): 15
Plant response rating, Morningglory (morningglory [2]; [20]): 20
Morningglory plant response rating (morningglory [2]; [21]): 15
Morningglory plant response rating (morningglory [2]; [22]): 15
Plant response rating, Foxtail, Giant (giant foxtail [3]; [15]): 0
Foxtail, Giant plant response rating (giant foxtail [3]; [16]): 80
Foxtail, Giant plant response rating (giant foxtail [3]; [17]): 0
Plant response rating, Foxtail, Giant (giant foxtail [3]; [18]): 10
Ducksalad plant response rating (ducksalad): 20
Foxtail, Giant plant response rating (giant foxtail [4]; [19]): 20
Plant response rating, Foxtail, Giant (giant foxtail [4]; [20]): 50
Foxtail, Giant plant response rating (giant foxtail [4]; [21]): 35
Foxtail, Giant plant response rating (giant foxtail [4]; [22]): 90
Plant response rating, Velvetleaf (velvetleaf [5]; [15]): 0
Velvetleaf plant response rating (velvetleaf [5]; [17]): 0
Plant response rating, Velvetleaf (velvetleaf [5]; [18]): 0
Plant response rating, Pigweed (pigweed; [15]): 0
Pigweed plant response rating (pigweed; [17]): 0
Plant response rating, Pigweed (pigweed; [18]): 40
Barnyardgrass plant response rating (barnyardgrass [6]): 20
Velvetleaf plant response rating (velvetleaf [7]; [19]): 10
Plant response rating, Velvetleaf (velvetleaf [7]; [20]): 25
Velvetleaf plant response rating (velvetleaf [7]; [21]): 25
Velvetleaf plant response rating (velvetleaf [7]; Preemergence, 2000 g ai/ha, visual rating, 0 to 100 scale (0 no effect, 100 complete control)): 65
Plant response rating, Wheat (wheat; [23]): 0
Wheat plant response rating (wheat; [24]): 0
Barnyardgrass plant response rating (barnyardgrass [8]; [19]): 15
Plant response rating, Barnyardgrass (barnyardgrass [8]; [20]): 55
Barnyardgrass plant response rating (barnyardgrass [8]; [21]): 55
Barnyardgrass plant response rating (barnyardgrass [8]; [22]): 90
Plant response rating, Lambsquarters (lambsquarters; [15]): 0
Lambsquarters plant response rating (lambsquarters; [17]): 0
Plant response rating, Lambsquarters (lambsquarters; [18]): 70
Plant response rating, Corn (corn; [15]): 0
Corn plant response rating (corn; [16]): 0
Corn plant response rating (corn; [17]): 0
Plant response rating, Corn (corn; [18]): 0
Crabgrass, Large plant response rating (large crabgrass [9]; [19]): 20
Plant response rating, Crabgrass, Large (large crabgrass [9]; [20]): 60
Crabgrass, Large plant response rating (large crabgrass [9]; [21]): 90
Crabgrass, Large plant response rating (large crabgrass [9]; [22]): 95
Plant response rating, Crabgrass, Large (large crabgrass [10]; [15]): 60
Crabgrass, Large plant response rating (large crabgrass [10]; [16]): 100
Crabgrass, Large plant response rating (large crabgrass [10]; [17]): 0
Plant response rating, Crabgrass, Large (large crabgrass [10]; [18]): 90
Plant response rating, Barnyardgrass (barnyardgrass [11]; [15]): 0
Barnyardgrass plant response rating (barnyardgrass [11]; [16]): 70
Barnyardgrass plant response rating (barnyardgrass [11]; [17]): 0
Plant response rating, Barnyardgrass (barnyardgrass [11]; [18]): 20
Plant response rating, Rice (rice [12]): 0
Plant response rating, Morningglory (morningglory [13]; [15]): 0
Morningglory plant response rating (morningglory [13]; [17]): 0
Plant response rating, Morningglory (morningglory [13]; [18]): 0
Sedge, Umbrella plant response rating [14]: 80
Plant response rating, Blackgrass (blackgrass; [23]): 0
Blackgrass plant response rating (blackgrass; [24]): 0
Pigweed plant response rating (redroot pigweed; [19]): 10
Plant response rating, Pigweed (redroot pigweed; [20]): 35
Pigweed plant response rating (redroot pigweed; [21]): 60
Pigweed plant response rating (redroot pigweed; [22]): 95
Plant response rating, Oat, Wild (wild oat; [23]): 0
Oat, Wild plant response rating (wild oat; [24]): 0
